Experimental data from US6723302B1, “Model for cell migration and use thereof” (The Research Foundation of State University of New York, priority 1996, dated 2004).

What was measured:
[1] = test system: human adult dermal fibroblasts; assay: Three-dimensional transmigration model (collagen gel into fibrin gel); assay type: cell-based; settings: for inhibition of transmigration by peptide added to the fibrin gel: transmigration stimulated by PR or PDGF-BB
Protocol: (§1) Primary cultures of human adult dermal fibroblasts were cultured in Dulbecco's modified Eagle's medium (DMEM, Life Technologies) supplemented with 100 U/ml penicillin and 100 μg/ml streptomycin, 42 mmol/l sodium bicarbonate and 10% fetal bovine serum (FBS, Atlanta Biologicals, Norcross, Ga.) at 37° C. and 5% CO2/95% air in a humidified atmosphere. The cells were used between passages 4 and 12.
(§2) Fibroblast cultures at 80% confluence were harvested by treatment with 0.05% trypsin/0.02% EDTA (ethylenediaminetetraacetic acid). Trypsin was inactivated by addition of soy bean trypsin inhibitor in PBS containing 0.2% BSA. The cells were washed twice with DMEM+10% FBS and resuspended at a concentration of 1×10^6 cells/ml. The fibroblasts were mixed with DMEM (5×), 10% FBS and neutralized collagen (Vitrogen 100, Celtrix Labs., Santa Clara, Calif.). In some experiments, FBS was replaced by 30 ng/ml PDGF-BB and 2% BSA. 0.6 ml aliquots of the cell mixture were added to the wells of a 24-well tissue culture plate, precoated with 2% BSA, and the collagen was allowed to polymerize at 37° C. The final concentration of collagen was 1.8 mg/ml and each gel contained 6×10^4 cells. After two hours incubation, the gels were gently detached from the plastic surface to allow contraction, 0.5 ml DMEM+10% FBS was added, and the gels were incubated overnight at 37° C. in 5% CO2.
Fibrinogen was mixed with DMEM (5×) and 0.5 U/ml thrombin (New York Blood Center, New York, N.Y.) so that the final concentration of fibrinogen was 300 μg/ml. Aliquots of 450 μl were added to the wells of a 24-well plate, and after a 2 hour incubation at 37° C. in 5% CO2, the polymerized gels were dried overnight at room temperature under sterile conditions.
Dried fibrin fibril-coated dishes were washed once with PBS and contracted collagen gels were placed on the surface. Fibrinogen, at a final concentration of 300 μg/ml, was mixed with DMEM (5×) and 1.0 U/ml thrombin. When needed, other supplements, such as growth factors, were added to the mixture. The collagen gels were surrounded with the fibrinogen solution so that the fibrin gel was level with the collagen gel (FIG. 1)
The number of migrated cells was evaluated under a Nikon inverted phase microscope by counting identifiable cell nuclei located outside of the contracted collagen gel, either on the fibrin fibril substrate (two-dimensional model) or within the fibrin gel (three-dimensional model). Each condition was assayed in triplicate and experiments were repeated at least three times.

[2] = test system: human adult dermal fibroblasts; assay: Two-dimensional outmigration model (collagen gel onto dried fibrin fibrils); assay type: cell-based; settings: collagen gel surrounded with liquid medium instead of fibrin gel
Protocol: as §1
as §2, with “The final concentration of collagen was 1.8 mg/ml and each gel contained 6×10^4 cells. After two hours incubation, the gels were gently detached from the plastic surface to allow contraction, 0.5 ml DMEM+10% FBS was added, and the gels were incubated overnight at 37° C. in 5% CO2.” left out
The number of migrated cells was evaluated under a Nikon inverted phase microscope by counting identifiable cell nuclei located outside of the contracted collagen gel, either on the fibrin fibril substrate (two-dimensional model) or within the fibrin gel (three-dimensional model). […]

Molecule: NCCCCCC(=O)O [ε-ACA, ε-Amino-n-Caproic acid]
- inhibition of transmigration induced by PDGF-BB (protease inhibitors) ([1]; in words): inhibited
- reduction of invasion of the fibrin gel ([1]; transmigration induced by PDGF-BB, 500 μg/ml ε-ACA): about 80%
- inhibition of outmigration onto dried fibrin fibrils induced by PDGF-BB [2]: not inhibited

Molecule: GRGDSP [synthetic RGD peptide]
- inhibition of transmigration by peptide added to the fibrin gel [1]: inhibited

Molecule: GRGESP [control-peptide]
- inhibition of transmigration by peptide added to the fibrin gel [1]: not

B1: PDGF-BB: Recombinant platelet-derived growth factor from ZymoGenetics (protein, UniProt P01127 82-190, looked up)
Platelet-derived growth …: SLGSLTIAEPAMIAECKTRTEVFEISRRLIDRTNANFLVWPPCVEVQRCSGCCNNRNVQCRPTQVQLRPVQVRKIEIVRKKPIFKKATVTLEDHLACKCETVAAARPVT
- induction of transmigration of fibroblasts from the collagen gel into the fibrin gel ([1]; counted after one day): could be induced
